SMILES strings stand for the structures.

For this series the following is noted: pampa; pH 5.0; 30.0 min; 50.0 µM.
Molecule `O=C(c1ccc(-c2ncc3cnc(-c4ccccc4)cn23)cc1)N1CCS(=O)(=O)CC1` came in with a Papp of 228 nm/s. On to `COc1ccc(C(=O)NC2CCCc3c2[nH]c2c(Cl)cccc32)cc1OC` (stereo unspecified), for which the Papp came out at 4830 nm/s. The same measure for `COc1ccccc1Nc1ccnc(N2CCN(C(=O)c3ccc(C)cc3)CC2)n1`: greater than 10000 nm/s. The same measure for `Cc1cc(C)nc(NC(=S)N2CCN(Cc3ccc(C(F)(F)F)cc3)CC2)c1`: greater than 10000 nm/s; for `Cc1ccc(C(=O)NC2CCN(c3cnn(CC4CC4)c(=O)c3)CC2)cc1C`: 4980 nm/s; for `CN(C)C(=O)NC1CCC(CCN2CCN(c3cccc(Cl)c3Cl)CC2)CC1` (stereo unspecified): 3500 nm/s. In the case of `Cc1cccc(-c2cc(NC(=O)c3ccccc3C)n(-c3ccccc3)n2)c1`, the Papp is 7860 nm/s. For the molecule `CNC(=O)c1ccccc1Nc1nc(Nc2ccc(N3CCOCC3)cc2OC)ncc1Cl`, the Papp is 1450 nm/s.

In turn, `COc1ccccc1Nc1cnc2ccc(-c3ccc(OC)c(OC)c3)nn12` registered an apparent permeability coefficient (Papp) of 6210 nm/s. The molecule `O=c1[nH]c(C2CCCN(CC3CCCCC3)C2)nn1-c1ccc(Cl)cc1` (stereo unspecified) had a Papp greater than 10000 nm/s.

Take `CCOc1cc(-c2nccc3cc(OC)c(OC)cc23)cc(OCC)c1OCC`: the apparent permeability (Papp) is greater than 10000 nm/s. `CNc1oc(-c2cccc3ccccc23)nc1C#N`: the Papp is 6450 nm/s.

Take `CCCN1C(CC(C)C)=NS(=O)(=O)c2cc(NC(=O)c3cccs3)ccc21`: the apparent permeability (Papp) came out at 2750 nm/s. The same measure for `Cn1ncnc1[C@H]1c2n[nH]c(=O)c3cc(F)cc(c23)N[C@@H]1c1ccc(F)cc1`: 462 nm/s; for `Cc1cccc(-c2noc([C@@H]3Cc4nc[nH]c4CN3)n2)c1`: 1690 nm/s; for `Cc1ccc(CNCc2cn[nH]c2-c2ccc(C)cc2)cc1`: 4100 nm/s. `O=C(NC1CCCN(c2cc(-c3ccc(F)cc3)[nH]n2)C1)c1ccc2ncccc2c1` (stereo unspecified) came in with a Papp greater than 10000 nm/s. The same measure for `COc1cc(C2c3c(oc4cc(C)c(C)cc4c3=O)C(=O)N2CCCN2CCOCC2)ccc1O` (stereo unspecified): 253 nm/s. Take `Fc1ccc(CNc2cc3c(cn2)CN(Cc2ccncc2)CCN3)cc1`: the Papp was found to be 143 nm/s. The figure for `COC(=O)c1cccc(NC(=O)c2cnc(-c3ccc(F)cc3)nc2-c2ccncc2)c1` is 6710 nm/s; for `CCOc1ccc(Nc2nc(C)c(NC(=O)c3ccc(C)cc3)c(Nc3ccc(OCC)cc3)n2)cc1` it is 590 nm/s; for `COc1ccc(-n2nc(C)c([C@@H]3C=C[C@@H](NCc4cccc(Cl)c4)C3)c2C)cc1` it is 7730 nm/s. The figure for `N#Cc1cccc(NC(=O)c2sc3nc4c(cc3c2N)N2CCC4CC2)c1` is 2850 nm/s; for `Cc1nc2nc(NC(=O)c3ccc(C(C)(C)C)cc3)[nH]n2c(=O)c1Cl` it is 839 nm/s; for `C[C@@]1(c2ncncc2F)NC(=O)c2cc(-c3cn[nH]c3)ccc21` it is greater than 10000 nm/s. The figure for `CN1CCN(Cc2ccc(-c3ccc(C(C)(C)C#N)cc3)nc2)CC1` is 473 nm/s; for `CCOC(=O)N1CCN(C(=O)Cn2sc3nc(C)cc(C)c3c2=O)CC1` it is 190 nm/s.

For `Cc1ccc(C)c(CN2C(=O)c3ccccc3S(=O)c3ccc(C(=O)N4CCN(c5ccccc5F)CC4)cc32)c1` (stereo unspecified), the Papp is 9320 nm/s. `O=C(c1ccc2ncccc2c1)N1CCc2c(nc3cc[nH]n3c2=O)C1` showed a Papp of 56 nm/s. The same measure for `CCOC(=O)Nc1ccc(NCc2ccc(F)cc2)nc1N`: 1420 nm/s. `COCCNC(=O)c1ccc(-c2ncc3cnc(-c4cccc(F)c4)cn23)cc1`: the apparent permeability coefficient (Papp) was 2830 nm/s.

Molecule `CCOC(=O)c1ccc(N2C(=O)c3n[nH]c(-c4cccs4)c3C2c2ccc(Cl)cc2Cl)cc1` (stereo unspecified) returned a Papp of 3160 nm/s.

Take `Cc1nn2c(c1-c1ccccc1-c1ccccc1)N(CC1CC1)CCC2`: the Papp is greater than 10000 nm/s. In the case of `CN(C)C(=O)c1nc(-c2ccc(Cl)cc2Cl)c2cnccn12`, the Papp was greater than 10000 nm/s.

The molecule `COCCNC(=O)[C@H]1C[C@H](Oc2ccccc2)CN1Cc1ccc2[nH]ccc2c1` yielded a Papp of 1860 nm/s. The figure for `CCOc1ccc(CCNC(=O)c2cc3ccccc3n2C)cc1OCC` is greater than 10000 nm/s; for `NC1(c2ccccc2Cl)CCCCC1=O` (stereo unspecified) it is 111 nm/s; for `O=C(O)c1cccc(-c2noc(-c3ccccc3F)n2)c1` it is 8920 nm/s. The same measure for `Cc1cccc(N(C)c2nc3ccccc3c3nnc(C)n23)c1`: greater than 10000 nm/s; for `C=C1[C@@H](C)C2[C@H](Cc3ccccc3)NC(=O)[C@@]23C(/C=C/C[C@H](C)C[C@@](C)(O)/C=C/[C@@H]3OC(C)=O)[C@@H]1O` (stereo partly specified): 550 nm/s; for `Cc1ccc(-n2nc3c(=O)n(CCCC(=O)NCc4ccccc4F)nc(C)c3c2C)cc1`: 2910 nm/s. The same measure for `COc1ccc(Nc2cnc3ccc(-c4ccc(OC)c(OC)c4)nn23)cc1`: 8210 nm/s; for `O=C(NCCCNc1nc(Nc2cccc(NC(=O)N3CCCC3)c2)ncc1I)c1cccs1`: 2340 nm/s. `COc1cccc(CN2CCNc3cc(Nc4ccccc4)ncc3C2)c1`: the Papp is 1870 nm/s. The figure for `CCC(=O)NC(c1ccc(OC)cc1)c1cc(Cl)c2cccnc2c1O` (stereo unspecified) is 57.5 nm/s; for `COc1ccc(CCNC(=O)Cn2c(=O)c3cccn3c3ccc(F)cc32)cc1OC` it is 3170 nm/s.

The record behind these values is PubChem BioAssay AID1645871.
